# Test results taken from patent publication US20230407243A1, “GENETIC PLATFORM TO INVESTIGATE THE FUNCTIONS OF BACTERIAL DRUG EFFLUX PUMPS” (priority 2022, published 2023).
# How the values were obtained:
# Format in all cases: cell-based, Escherichia coli
# E. coli EKO-35 = assay: microbe, parasite or virus in culture
# Procedure, shortened: (§1)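 Steps: LB overnight culture at 37 °C; resuspension in PBS to OD600 ~1.0; 1/2000 dilution in MHB II; addition to 2-fold serial compound dilutions (duplicate); 18 h shaking incubation at 37 °C; OD600 read, with pre-read subtracted.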
# E. coli ΔtolC = assay: microbe, parasite or virus in culture; conditions: technical duplicate
# Procedure, shortened: as §1
# [1] = tested on: wild-type E. coli K-12 str. BW25113; assay: microbe, parasite or virus in culture; conditions: technical duplicate
# Procedure, shortened: as §1
# EKO-35 araC::acrEF = assay: MIC susceptibility profiling, efflux platform
# Procedure, shortened: as §1
# EKO-35 araC::emrAB = assay: MIC susceptibility profiling, efflux platform
# Procedure, shortened: as §1
# EKO-35 araC::macAB = assay: MIC susceptibility profiling, efflux platform
# Procedure, shortened: as §1
# wild-type (WT) K-12-Pore = assay: microbe, parasite or virus in culture; conditions: technical duplicate
# Procedure, shortened: (§2)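 Strains carry the fhuA ΔC/Δ4L pore integrated between glmS and pstS under a constitutive promoter, with pore activity checked by vancomycin susceptibility. Overnight LB cultures were adjusted in PBS pH 7.4 to OD600 ~1.0 and diluted 1/2000 into MHB II. 2-fold compound titrations were read by OD600 after 18 h at 37 °C.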
# ΔtolC-Pore = assay: microbe, parasite or virus in culture; conditions: technical duplicate
# Procedure, shortened: as §2
# EKO-35-Pore = assay: MIC susceptibility profiling, porinated strain
# Procedure, shortened: as §2
# EKO-35 araC::acrB Pore = assay: MIC susceptibility profiling, porinated efflux platform
# Procedure, shortened: as §2
# [2] = tested on: EKO-35 araC::acrBD408A Pore; assay: as above
# Procedure, shortened: as §2
# EKO-35 araC::acrD Pore = assay: as above
# Procedure, shortened: as §2
# EKO-35 araC::acrEF Pore = assay: as above
# Procedure, shortened: as §2
# EKO-35 araC::emrAB Pore = assay: as above
# Procedure, shortened: as §2
# EKO-35 araC::emrKY Pore = assay: as above
# Procedure, shortened: as §2
# EKO-35 araC::macAB Pore = assay: as above
# Procedure, shortened: as §2
# EKO-35 araC::mdtBC Pore = assay: as above
# Procedure, shortened: as §2
# EKO-35 araC::mdtEF Pore = assay: as above
# Procedure, shortened: as §2
# EKO-35 araC::mexCD Pore = assay: as above
# Procedure, shortened: as §2
# [3] = Table 13A, non-porinated, technical duplicate
# [4] = Table 13B, non-porinated, technical duplicate
# [5] = Table 14A, porinated, technical duplicate
structure (smiles),measurement,setting,value
COC(=O)c1sc(N2CCCC2)c(C#N)c1-c1cccs1 [compound 10],Fold change of MICs,E. coli EKO-35; EKO-35 compared to EKO-35 (reference),1 fold
same,"Minimum inhibitory concentration (MIC), EKO-35","E. coli EKO-35; Table 10, without pore, technical duplicate",160 µg/mL
same,"Minimum Inhibitory Concentration, EKO-35",E. coli EKO-35; [3],160 µg/mL
same,"Minimum inhibitory concentration (MIC), ΔtolC","E. coli ΔtolC; Table 10, without pore",10 µg/mL
same,"Minimum Inhibitory Concentration, ΔtolC","E. coli ΔtolC; Table 13A, non-porinated",10 µg/mL
same,"Minimum inhibitory concentration (MIC), K-12","[1]; Table 10, without pore",160 µg/mL
same,"Minimum Inhibitory Concentration, K-12","[1]; Table 13A, non-porinated",160 µg/mL
same,Fold change of MICs,EKO-35 araC::acrEF; EKO-35 araC::acrEF compared to EKO-35,1 fold
same,"Minimum Inhibitory Concentration, EKO-35 araC::acrEF",EKO-35 araC::acrEF; [3],160 µg/mL
same,Fold change of MICs,EKO-35 araC::emrAB; EKO-35 araC::emrAB compared to EKO-35,1 fold
same,"Minimum Inhibitory Concentration, EKO-35 araC::emrAB",EKO-35 araC::emrAB; [4],160 µg/mL
same,Fold change of MICs,EKO-35 araC::macAB; EKO-35 araC::macAB compared to EKO-35,1 fold
same,"Minimum Inhibitory Concentration, EKO-35 araC::macAB",EKO-35 araC::macAB; [4],160 µg/mL
same,"Minimum inhibitory concentration (MIC), Pore K-12","wild-type (WT) K-12-Pore; Table 10, with pore",160 µg/mL
same,"Minimum inhibitory concentration, K-12 (WT)-Pore","wild-type (WT) K-12-Pore; Table 14A, porinated",160 µg/mL
same,"Minimum inhibitory concentration (MIC), Pore ΔtolC","ΔtolC-Pore; Table 10, with pore",5 µg/mL
same,"Minimum inhibitory concentration, ΔtolC-Pore","ΔtolC-Pore; Table 14A, porinated",5 µg/mL
same,Fold changes of MICs,EKO-35-Pore; EKO-35-Pore compared to EKO-35-Pore (reference),1 fold
same,"Minimum inhibitory concentration (MIC), Pore EKO-35","EKO-35-Pore; Table 10, with pore, technical duplicate",10 µg/mL
same,"Minimum inhibitory concentration, EKO-35-Pore",EKO-35-Pore; [5],10 µg/mL
same,efflux pump-mediated resistance vs EKO-35-Pore,EKO-35 araC::acrB Pore; AcrB with the pore,increased resistance
same,Fold changes of MICs,EKO-35 araC::acrB Pore; EKO-35 araC::acr-B Pore compared to EKO-35-Pore,16 fold
same,"Minimum inhibitory concentration, EKO-35 araC::acrB Pore",EKO-35 araC::acrB Pore; [5],160 µg/mL
same,Fold changes of MICs,[2]; EKO-35 araC::acrBD408A Pore compared to EKO-35-Pore,1 fold
same,Minimum inhibitory concentration,"[2]; EKO-35 araC::acrBD408A Pore, technical duplicate",10 µg/mL
same,Fold changes of MICs,EKO-35 araC::acrD Pore; EKO-35 araC::acrD Pore compared to EKO-35-Pore,16 fold
same,"Minimum inhibitory concentration, EKO-35 araC::acrD Pore",EKO-35 araC::acrD Pore; [5],160 µg/mL
same,efflux pump-mediated resistance vs EKO-35-Pore,EKO-35 araC::acrEF Pore; AcrEF with the pore,increased resistance
same,Fold changes of MICs,EKO-35 araC::acrEF Pore; EKO-35 araC::acrEF Pore compared to EKO-35-Pore,16 fold
same,"Minimum inhibitory concentration, EKO-35 araC::acrEF Pore",EKO-35 araC::acrEF Pore; [5],160 µg/mL
same,Fold changes of MICs,EKO-35 araC::emrAB Pore; EKO-35 araC::emrAB Pore compared to EKO-35-Pore,16 fold
same,Minimum inhibitory concentration,"EKO-35 araC::emrAB Pore; EKO-35 araC::emrAB Pore, technical duplicate",160 µg/mL
same,efflux pump-mediated resistance vs EKO-35-Pore,"EKO-35 araC::emrAB Pore; EmrAB, porinated strain",associated with resistance
same,Fold changes of MICs,EKO-35 araC::emrKY Pore; EKO-35 araC::emrKY Pore compared to EKO-35-Pore,1 fold
same,Minimum inhibitory concentration,"EKO-35 araC::emrKY Pore; EKO-35 araC::emrKY Pore, technical duplicate",10 µg/mL
same,Fold changes of MICs,EKO-35 araC::macAB Pore; EKO-35 araC::macAB Pore compared to EKO-35-Pore,1 fold
same,Minimum inhibitory concentration,"EKO-35 araC::macAB Pore; EKO-35 araC::macAB Pore, technical duplicate",10 µg/mL
same,Fold changes of MICs,EKO-35 araC::mdtBC Pore; EKO-35 araC::mdtBC Pore compared to EKO-35-Pore,1 fold
same,Minimum inhibitory concentration,"EKO-35 araC::mdtBC Pore; EKO-35 araC::mdtBC Pore, technical duplicate",10 µg/mL
same,Fold changes of MICs,EKO-35 araC::mdtEF Pore; EKO-35 araC::mdtEF Pore compared to EKO-35-Pore,16 fold
same,efflux pump-mediated resistance vs EKO-35-Pore,EKO-35 araC::mdtEF Pore; MdtEF with the pore,increased resistance
same,"Minimum inhibitory concentration, EKO-35 araC::mdtEF Pore",EKO-35 araC::mdtEF Pore; [5],160 µg/mL
same,Fold changes of MICs,EKO-35 araC::mexCD Pore; EKO-35 araC::mexCD Pore compared to EKO-35-Pore,16 fold
same,Minimum inhibitory concentration,"EKO-35 araC::mexCD Pore; EKO-35 araC::mexCD Pore, technical duplicate",160 µg/mL
same,efflux pump-mediated resistance vs EKO-35-Pore,"EKO-35 araC::mexCD Pore; MexCD, OM compromised",increased resistance
